The values that follow come from patent publication US20050267020A1, “Polypeptides derived from inducible hsp70 and pharmaceutical compositions containing the same” (priority 2001, published 2005).

The subject of this assay is murine CTL lines mCTL134, mCTL380, mCTL391, mCTL393. The experiment in a line: Murine CTL avidity for peptide, 51Cr release cytotoxic assay. It counts as cell-based, HHD mice. The note with it: peptide concentration, effector:target ratio 40:1, each CTL line with its respective Hsp70 peptide, read-out: avidity (50% of maximal lysis). Here is the method:
The four graphs indicate the cell lysis by CTL lines obtained after stimulation with the following peptides, respectively: HSP134 (line mCTL134), HSP380 (line mCTL380), HSP391 (line mCTL391) and HSP393 (line mCTL393). The avidity of the CTLs for their cellular target is determined with a ^51Cr release assay with an effector:target ratio of 40:1. The percentage of lysis of target cells is expressed on the Y axis, as a function of peptide concentration in the medium, which is represented on the X axis. In each graph, the black curve with diamond-shaped points represent cell lysis in presence of HSP peptides, whereas the grey curve with square points represent cell lysis in presence of cognate HSC peptides.
For measuring the avidity of mCTL134 for cells presenting HSP134, the peptide concentration ranges from […]. For mCTL380, mCTL391 and mCTL393, the respective peptide concentration ranges from 1 pM to 1 μM. The different points on each curve correspond, from left to right, to peptide concentrations of 1 pM, 10 pM, 100 pM, 1 nM, 10 nM, 100 nM and 1 μM.
Generation of CTL in HLA-transgenic mice. […]
Cytotoxic assay. […] After incubation, 100 μL of supernatant was collected and radioactivity was measured in a γ-counter. Percentage of specific lysis was determined as: Lysis=(Experimental Release−Spontaneous Release)/(Maximal Release−Spontaneous Release)×100. […]

As to LMGDKSENV [HSP 380], the EC50 was roughly 0.01 µM.
